This is an account of results in patent US20260000655A1, “PHARMACEUTICAL COMPOSITION FOR USE IN PREVENTION OR TREATMENT OF LIFESTYLE-RELATED DISEASE” (priority 2022, published 2026).

The test system of one data set is Smad 3. The conditions noted are these: Non-Patent Literature 3; cited from earlier work.
Data set [1] concerns adenosine monophosphate-activated protein kinase (AMPK). Kind of data set: Activation of AMPK (p-AMPK/AMPK, Western blotting) in adipocyte model 3T3-L1. In kind it is cell-based, mouse. The conditions noted are these: 3T3-L1 adipocytes; HPH-15 at 1/200th the concentration of metformin (2 mM); 24 hours. From the text:
(§1) The tissues involved in glucose uptake and glucose metabolism are mainly the muscle, the liver, and the fat. Thus, using a cell model of each tissue, the relationship between HPH-15 and activation of adenosine monophosphate-activated protein kinase (AMPK) was examined. Note that AMPK is known as a therapeutic target for diabetes. AMPK acts as an energy sensor, and when it detects a decrease in ATP serving as an intracellular energy source, it suppresses the synthesis of glucose, fats, and proteins and produces ATP. Exercise therapy for diabetes is based on this mechanism. Further, AMPK has been drawing attention as a factor that improves insulin resistance.
(§2) As a muscle cell model to be used, rat myoblast cell line L6-GLUT4myc (myoblasts expressing myc-tagged GLUT4) was cultured in a minimal essential medium a-MEM (10% FBS) and differentiated into myotubes. Differentiation into myotubes was performed by culturing L6-GLUT4 cells in a-MEM (10% FBS) and then changing the medium to a-MEM (2% FBS), followed by culturing for 6 days. Human HepG2 cell line was used as a liver cell model. As an adipocyte model to be used, mouse 3T3-L1 preadipocyte cell line was differentiated into adipocytes. Differentiation into adipocytes was performed as follows. […]
(§3) Next, bands of AMPK and p-AMPK were quantified using ImageJ to determine a ratio of activated AMPK relative to AMPK (p-AMPK/AMPK).

Data set [2] has the same test system. In words: Activation of AMPK (p-AMPK/AMPK, Western blotting) in myotube cell model L6-GLUT4myc. In kind it is cell-based, rat. To be noted: HPH-15 at 1/200th the concentration of metformin (2 mM), 24 hours.
From the text: as §1, §2, §3

In data set [3] the test system is liver cell model HepG2 cells. In words: Cytotoxicity (MTT reagent). The conditions noted are these: HPH-15 1 μM, 10 μM or 50 μM, 24 hours. Format: cell-based, human. As for the experimental part:
It was examined whether using HPH-15 as a drug caused any cytotoxicity.
The myotube cell model L6-GLUT4myc, the liver cell model HepG2 cells, and the adipocyte model 3T3-L1 used in Example 1 were each seeded onto a 24-well plate (1×10^5 cells/well, […] of culture liquid) and cultured overnight. Then, a DMSO solution (1%) containing HPH-15 (final concentration: 1 μM, 10 μM or 50 μM) was added to the medium, and the cells were further cultured for 24 hours. As a control, only DMSO solution (1%) was added, and the cells were cultured for 24 hours in the same manner. Next, […] of MTT reagent (3-(4,5-dimethyl-2-thiazolyl)-2,5-diphenyl-2H-tetrazolium bromide: 1.1 mg/mL: Dojindo Laboratories) was added to each well, and the cells were further cultured for 4 hours. After collecting the precipitated crystals, the supernatant was removed and DMSO ([…]) was added to completely dissolve the crystals. Cytotoxicity was evaluated by measuring the absorbance (550 nm) of the solution and determining the number of viable cells.

The subject of data set [4] is liver cell model HepG2 cells. Kind of data set: Neutral fat accumulation (Oil Red O) in presence of glucose. In kind it is cell-based, human. To be noted: HPH-15 50 μM vs metformin 2 mM, glucose 100 mM, 24 hours. As for the experimental part: Many patients with type 2 diabetes have fat accumulation in the visceral organs.
The liver cell model HepG2 cells used in Example 1 were seeded onto a 24-well plate (1×10^5 cells/well, […] of culture liquid) and cultured overnight. Then, a DMSO solution (1%) containing HPH-15 (final concentration: 50 μM) or metformin (final concentration: 2 mM) was added to the medium, and the cells were further cultured for 24 hours. As a control, only DMSO solution (1%) was added, and the cells were cultured for 24 hours in the same manner. Next, glucose (100 mM) was added to the medium, and the cells were further cultured for 24 hours. Then, the cells were fixed using 4% paraformaldehyde for 10 minutes. The fixed cells were added with an Oil Red O staining solution (Nacalai Tesque, Inc.) and shaken for 15 minutes. After washing with a 60% aqueous isopropanol solution, cell images were observed using a microscope. Further, the amount of neutral fat in the cells was determined by dissolving the stained cells in 100% isopropanol and measuring the absorbance (492 nm).

As for `CC(C)(C)SCCNC(=S)c1cccc(C(=S)NCCSC(C)(C)C)n1` [HPH-15], the “phosphorylation of Smad 3 induced by TGF-β” value with Smad 3 is given as “reduces the phosphorylation of Smad 3 induced by TGF-β”. Moreover, the “AMPK activation (p-AMPK/AMPK) compared to when metformin was used” value in data set [1] is recorded as “approximately 170%”; in data set [2], “approximately 75%”. The “cytotoxicity (number of viable cells)” value in data set [3] is on record as “no cytotoxicity was confirmed”. Moreover, the neutral fat accumulation entry in data set [4] is on record as “had an inhibitory effect on neutral fat accumulation in the presence of high glucose in the same manner as metformin”.
